For data set [1], the target named is Protein kinase C alpha type (Homo sapiens) (UniProt P17252). The data set can be described thus: Inhibition of TPA-induced membrane translocation of PKCalpha expressed in HEK293 cells assessed as protein found in membrane fraction at 100 uM after 2 hrs by Western blotting relative to TPA. Format: cell-based. Details: scale not given: the % may be the effect or the level left. In general terms: In western blotting, separated proteins are transferred to a membrane and probed.

Data set [2] has as its system HEK293. The data set can be described thus: Cytotoxicity against HEK293 cells assessed as increase in cell viability at 100 uM after 48 hrs by MTT assay relative to resveratrol. It counts as cell-based. As to conditions: human, hek293, 48 h. In general terms: Formazan colour is commonly taken as a measure of viable cells.
Data set [3] has as its target Protein kinase C alpha type (Homo sapiens) (UniProt P17252). As to the kind of experiment: Binding affinity to recombinant C1B domain of PKCalpha expressed in Escherichia coli BL21 (DE3) after 45 mins by fluorescence quenching assay.
Data set [4] shares this target. The data set can be described thus: Inhibition of membrane translocation of PKCalpha expressed in HEK293 cells assessed as increase of protein found in membrane fraction at 100 uM after 2 hrs by Western blotting relative to resveratrol. Format: cell-based. On the set-up: scale not given: the % may be the effect or the level left.
Data set [5] relates to HEK293. The data set can be described thus: Cytotoxicity against HEK293 cells assessed as decrease in cell viability at 100 uM after 48 hrs by MTT assay relative to control. The following applies: human, hek293, 48 h. It counts as cell-based.
Data set [6] addresses Protein kinase C alpha type (Homo sapiens) (UniProt P17252). The data set can be described thus: Inhibition of membrane translocation of PKCalpha expressed in HEK293 cells at 100 uM after 2 hrs by Western blotting. It counts as cell-based.

Molecules are shown by their SMILES. Calls of active or inactive are those of the source. The rule behind the calls is not given here.

For the compound `CCCCCCCCCCCCCCCCOc1ccc(/C=C/c2cc(O)cc(O)c2)cc1`, the values for the Activity in data set [1] and in data set [4] were 79.8% and 20%, respectively. Also, the “fold change (FC)” value with HEK293 [2] was determined as 2. The outcome in data set [3] was Active.

On to `CCCCCCCCOc1ccc(/C=C/c2cc(O)cc(O)c2)cc1`, for which the Activity in data set [1] is 85.2%; in data set [4], 20%. In addition, the “fold change (FC)” value in the data set on HEK293 [2] is given as 4.

Regarding `CCCCCCCCOc1cc(/C=C/c2ccc(O)cc2)cc(OCCCCCCCC)c1`, the Activity in data set [1] amounted to 65.7%; in data set [4] it was 20%. Also, in the data set on HEK293 [2], the “fold change (FC)” value came out at 4.

For `Oc1cc(/C=C/c2cc(O)c(O)c(O)c2)cc(O)c1O`, the figures for the Activity (in data set [1]; with HEK293 [2]; in data set [4]) were 29.8%, 25% and 20%, respectively. Further, the result in data set [3] was Active.

`CCCCCCCCCCCCCCCCOc1cc(/C=C/c2ccc(O)cc2)cc(OCCCCCCCCCCCCCCCC)c1`: the results for the Activity in data set [1] and in data set [4] were 78.8% and 20%, respectively. The “fold change (FC)” value in the data set on HEK293 [2] is listed as 2.

Consider `CCCCCCCCCCCCCCCCOc1c(O)cc(/C=C/c2cc(O)c(O)c(O)c2)cc1O`, for which the Activity stood at 68.3% in data set [1], 25% in the data set with HEK293 [2] and 20% in data set [4].

With `COc1cc(/C=C/c2cc(OC)c(OC)c(OC)c2)cc(OC)c1OC`, the Activity in data set [1] turned out to be 44.8%; in data set [4], 20%. Besides, in the data set with HEK293 [2], the “fold change (FC)” value came to 2.

For `COc1ccc(/C=C/c2cc(OC)cc(OC)c2)cc1` [TRISMETHOXYRESVERATROL], the Activity in data set [1] came out at 31.9%; in data set [4], 20%. Also, the “fold change (FC)” value in the data set on HEK293 [2] is 4. Further, the outcome in data set [3] was Active.

Consider `Oc1ccc(/C=C/c2cc(O)cc(O)c2)cc1` [RESVERATROL], for which the Activity in the data set with HEK293 [5] was 20%; in data set [1], 60%. Further, the inhibition in data set [6] was 5%. For the same compound, the result in data set [3] was Active.

The term inhibition denotes the share of the control response that was lost under treatment.

Source of the values: ChEMBL document CHEMBL1817580, “Chemical modifications of resveratrol for improved protein kinase C alpha activity” (Bioorg Med Chem, 2011).
